The source made the active and inactive calls. Rule as the data show it, for most assays here: actives have a measured EC50 and inactives only a lower limit.
What was measured:
[1] = MIN6 cell viability loss – mouse insulinoma, cytotoxicity control, dose response (AID 2122); type: functional;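 also: confirmatory high-throughput counterscreen run to flag cytotoxic compounds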
[2] = Luminescence Cell-Based Dose Response HTS to Identify Inhibitors of 5'UTR Stem-Loop Driven Prion Protein mRNA Translation in H4 Neuroglioblastoma Cells. [Related pubchem assays: 1827 (Project Summary), 1813 (Primary HTS)]; type: functional
[3] = decrease of insulin promoter-GFP reporter – imaging, high-content screening, mouse beta cells (AID 1628); type: functional; settings: MIN6
[4] = luciferase reporter signal suppression in cells – H4 neuroglioma cells, luminescence, dose response (AID 1990); type: functional, cell-based
[5] = viability of PTEN-deleted HCT116 cells – cell-based, HCT116 PTEN knockout, dose response (AID 1047); type: functional;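 also: HCT116 colon tumor cells with PTEN knocked out; cells exposed to compound for 60 hours before readout; potency for loss of cell viability measured by luminescence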
[6] = alpha-synuclein stem-loop luciferase translation blockers – H4 neuroglioma cells, luminescence, confirmation (AID 1988); type: functional, cell-based
[7] = viability of HCT116 lacking mutant beta-catenin – cell-based, human colon tumor, dose response (AID 1045); type: functional;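 also: HCT116 colon tumor cells with beta catenin knocked out; cells exposed to compound for 60 hours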
[8] = biological target: T1, Intestinal-type alkaline phosphatase (Homo sapiens, UniProt P09923); experiment: activation of human intestinal alkaline phosphatase – biochemical, luminescent, uHTS hits, set 2, dose response (AID 488817); type: functional;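 also: potency of activators that raise enzyme activity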
[9] = biological target: T1, Intestinal-type alkaline phosphatase; experiment: human intestinal alkaline phosphatase activators, dose response, biochemical, luminescence, uHTS hits (AID 463120); type: functional
[10] = biological target: Intestinal-type alkaline phosphatase (Mus musculus, UniProt P24822); experiment: PubChem AID 488874; type: functional
[11] = biological target: T2, Zinc finger protein mex-5 (Caenorhabditis elegans, UniProt Q9XUB2); experiment: potency of MEX-5 RNA-binding blockers – biochemical, C. elegans, fluorescence polarization, dose response (AID 1960)
T2 sequence (Q9XUB2 whole entry): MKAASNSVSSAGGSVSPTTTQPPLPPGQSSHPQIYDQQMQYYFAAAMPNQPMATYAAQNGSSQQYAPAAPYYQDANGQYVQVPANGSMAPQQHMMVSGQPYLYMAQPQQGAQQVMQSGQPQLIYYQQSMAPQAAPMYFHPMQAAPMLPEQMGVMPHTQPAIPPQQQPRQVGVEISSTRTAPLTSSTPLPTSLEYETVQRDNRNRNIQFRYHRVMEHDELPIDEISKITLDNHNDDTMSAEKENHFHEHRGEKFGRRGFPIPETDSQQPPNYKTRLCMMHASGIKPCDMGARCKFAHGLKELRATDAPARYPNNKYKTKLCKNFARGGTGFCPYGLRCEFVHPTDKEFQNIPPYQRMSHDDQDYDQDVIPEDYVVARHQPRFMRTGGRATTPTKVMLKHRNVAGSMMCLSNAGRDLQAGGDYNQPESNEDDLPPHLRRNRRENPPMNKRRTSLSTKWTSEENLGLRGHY

[12] = biological target: T3, RNA-binding protein pos-1 (Caenorhabditis elegans, UniProt G5EF15); experiment: disruptors of C. elegans POS-1 RNA interaction – biochemical, fluorescence polarization, dose response (AID 1964);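 also: purified POS-1 fused to maltose binding protein made in E. coli; potency of compounds blocking POS-1 binding to fluorescent RNA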
T3 sequence (G5EF15 whole entry): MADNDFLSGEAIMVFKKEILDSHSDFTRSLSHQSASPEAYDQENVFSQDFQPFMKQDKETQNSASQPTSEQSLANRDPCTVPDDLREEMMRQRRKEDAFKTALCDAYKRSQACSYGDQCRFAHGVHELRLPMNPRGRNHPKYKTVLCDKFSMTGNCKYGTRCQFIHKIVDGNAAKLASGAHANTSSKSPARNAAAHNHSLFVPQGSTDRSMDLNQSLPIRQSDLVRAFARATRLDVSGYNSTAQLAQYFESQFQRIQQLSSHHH

[13] = biological target: T4, Alkaline phosphatase, tissue-nonspecific isozyme (Homo sapiens, UniProt P05186); experiment: activation of tissue-nonspecific alkaline phosphatase – biochemical, TNAP isozyme, human IAP uHTS hits, selectivity assay for human IAP activator project, dose response (AID 488886); type: functional;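 also: potency of compounds raising TNAP activity as a selectivity check on IAP activators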
T4 sequence (P05186 whole entry): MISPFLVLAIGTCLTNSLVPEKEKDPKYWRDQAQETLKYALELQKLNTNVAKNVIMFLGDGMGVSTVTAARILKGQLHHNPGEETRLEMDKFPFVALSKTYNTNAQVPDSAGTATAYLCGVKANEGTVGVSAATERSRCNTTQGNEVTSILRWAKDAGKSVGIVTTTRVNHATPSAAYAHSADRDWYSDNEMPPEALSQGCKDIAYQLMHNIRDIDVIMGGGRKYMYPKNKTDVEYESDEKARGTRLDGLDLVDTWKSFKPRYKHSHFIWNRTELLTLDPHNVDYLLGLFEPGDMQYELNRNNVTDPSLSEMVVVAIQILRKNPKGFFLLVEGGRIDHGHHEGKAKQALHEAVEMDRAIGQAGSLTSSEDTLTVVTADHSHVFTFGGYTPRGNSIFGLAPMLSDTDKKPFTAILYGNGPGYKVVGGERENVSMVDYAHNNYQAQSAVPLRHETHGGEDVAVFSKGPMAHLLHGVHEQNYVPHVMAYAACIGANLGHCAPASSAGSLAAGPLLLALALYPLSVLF

T1 sequence (P09923 whole entry): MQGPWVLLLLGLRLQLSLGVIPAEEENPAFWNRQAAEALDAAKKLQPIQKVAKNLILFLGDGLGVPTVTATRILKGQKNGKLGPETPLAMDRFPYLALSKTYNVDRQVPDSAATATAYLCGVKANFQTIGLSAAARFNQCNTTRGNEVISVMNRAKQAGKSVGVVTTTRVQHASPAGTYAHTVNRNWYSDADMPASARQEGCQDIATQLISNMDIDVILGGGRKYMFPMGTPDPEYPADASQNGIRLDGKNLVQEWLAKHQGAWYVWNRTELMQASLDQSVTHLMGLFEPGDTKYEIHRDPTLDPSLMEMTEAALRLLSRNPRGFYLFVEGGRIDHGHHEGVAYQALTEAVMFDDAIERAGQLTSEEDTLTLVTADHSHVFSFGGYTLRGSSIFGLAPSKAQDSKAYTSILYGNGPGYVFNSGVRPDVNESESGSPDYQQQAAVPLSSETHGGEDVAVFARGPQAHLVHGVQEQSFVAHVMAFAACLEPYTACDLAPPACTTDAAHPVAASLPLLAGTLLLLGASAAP
Intestinal-type alkaline phosphatase (Mus musculus, UniProt P24822), sequence (P24822 whole entry): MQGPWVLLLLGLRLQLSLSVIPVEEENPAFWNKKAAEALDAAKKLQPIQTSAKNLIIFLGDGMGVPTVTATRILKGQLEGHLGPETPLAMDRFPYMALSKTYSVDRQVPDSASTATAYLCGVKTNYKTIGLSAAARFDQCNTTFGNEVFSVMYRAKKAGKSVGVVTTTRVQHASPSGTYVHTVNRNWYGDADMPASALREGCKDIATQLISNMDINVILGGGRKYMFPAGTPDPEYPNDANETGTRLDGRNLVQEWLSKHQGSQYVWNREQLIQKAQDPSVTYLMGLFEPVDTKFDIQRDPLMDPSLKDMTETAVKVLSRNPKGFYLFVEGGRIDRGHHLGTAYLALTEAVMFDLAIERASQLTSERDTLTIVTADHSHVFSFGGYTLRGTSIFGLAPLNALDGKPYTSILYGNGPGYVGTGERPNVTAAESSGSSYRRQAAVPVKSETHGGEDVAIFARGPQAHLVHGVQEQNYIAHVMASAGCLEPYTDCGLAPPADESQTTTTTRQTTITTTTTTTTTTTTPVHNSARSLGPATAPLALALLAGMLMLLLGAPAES

| SMILES | IC50 [1] | EC50 [2] | IC50 [3] | EC50 [4] | EC50 [5] | EC50 [6] | EC50 [7] | EC50 [8] | EC50 [9] | IC50 [10] | EC50 [11] | EC50 [12] | EC50 [13] |
| --- | --- | --- | --- | --- | --- | --- | --- | --- | --- | --- | --- | --- | --- |
| COc1ccc(N2CCN(Cc3nc(N)nc(Nc4ccc(C)c(Cl)c4)n3)CC2)cc1 | 4.31 µM (active) | 26.8 µM (active) | 3.03 µM (active) | 9.58 µM (active) | 28.9 µM (active) | 13.7 µM (active) | 24 µM (active) |  |  |  |  |  |  |
| CCOC(=O)c1cnc(-n2nc(C)cc2C)nc1NNc1nc(C)cc(C)n1 |  |  |  |  |  |  |  | 21.3 µM (active) | 8.43 µM (active) | 66 µM (active) | > 300 µM (inconclusive) | 65.5 µM (active) | 21.4 µM (active) |

Source: ChEMBL document CHEMBL1201862, “PubChem BioAssay data set” (2004)
